Experimental data reported in paper PMC5669819 (Molecular cancer therapeutics, 2017).

Legend:
[1] = molecular target: MEK1 (Homo sapiens, UniProt Q02750); format: biochemical
[2] = molecular target: PI3Kα (Homo sapiens, UniProt P42336); experiment: Adapta TR-FRET lipid kinase assay with purified enzyme; format: biochemical
Sequence of PI3Kα (P42336 whole entry): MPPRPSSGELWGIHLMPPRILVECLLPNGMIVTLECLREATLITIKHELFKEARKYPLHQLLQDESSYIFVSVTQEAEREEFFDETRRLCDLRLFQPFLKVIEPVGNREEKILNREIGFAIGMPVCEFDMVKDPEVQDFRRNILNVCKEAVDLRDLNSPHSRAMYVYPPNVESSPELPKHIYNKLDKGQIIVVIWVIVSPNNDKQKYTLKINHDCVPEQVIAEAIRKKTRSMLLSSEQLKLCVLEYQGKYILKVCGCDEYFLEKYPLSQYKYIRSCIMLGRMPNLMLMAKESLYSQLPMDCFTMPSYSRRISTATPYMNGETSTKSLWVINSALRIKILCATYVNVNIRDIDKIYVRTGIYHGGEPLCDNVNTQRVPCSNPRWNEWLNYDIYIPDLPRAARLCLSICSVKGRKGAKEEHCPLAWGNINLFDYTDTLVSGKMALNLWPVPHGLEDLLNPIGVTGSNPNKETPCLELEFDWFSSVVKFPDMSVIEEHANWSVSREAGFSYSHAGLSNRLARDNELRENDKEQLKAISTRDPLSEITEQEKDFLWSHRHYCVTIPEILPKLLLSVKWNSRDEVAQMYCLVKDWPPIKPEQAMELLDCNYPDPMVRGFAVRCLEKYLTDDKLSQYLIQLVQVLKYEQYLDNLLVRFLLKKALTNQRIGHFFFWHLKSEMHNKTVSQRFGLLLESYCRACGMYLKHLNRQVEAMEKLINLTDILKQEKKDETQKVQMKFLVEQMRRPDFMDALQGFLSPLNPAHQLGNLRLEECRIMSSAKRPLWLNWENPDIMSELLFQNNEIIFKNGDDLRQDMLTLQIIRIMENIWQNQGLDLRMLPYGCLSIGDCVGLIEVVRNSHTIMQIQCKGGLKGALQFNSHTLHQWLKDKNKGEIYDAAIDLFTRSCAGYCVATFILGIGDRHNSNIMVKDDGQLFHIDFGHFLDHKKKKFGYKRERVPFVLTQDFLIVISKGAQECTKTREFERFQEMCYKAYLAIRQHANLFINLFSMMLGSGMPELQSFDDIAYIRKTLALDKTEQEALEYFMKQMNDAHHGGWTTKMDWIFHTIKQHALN
Sequence of PI3Kα (P27986 2-724 partner): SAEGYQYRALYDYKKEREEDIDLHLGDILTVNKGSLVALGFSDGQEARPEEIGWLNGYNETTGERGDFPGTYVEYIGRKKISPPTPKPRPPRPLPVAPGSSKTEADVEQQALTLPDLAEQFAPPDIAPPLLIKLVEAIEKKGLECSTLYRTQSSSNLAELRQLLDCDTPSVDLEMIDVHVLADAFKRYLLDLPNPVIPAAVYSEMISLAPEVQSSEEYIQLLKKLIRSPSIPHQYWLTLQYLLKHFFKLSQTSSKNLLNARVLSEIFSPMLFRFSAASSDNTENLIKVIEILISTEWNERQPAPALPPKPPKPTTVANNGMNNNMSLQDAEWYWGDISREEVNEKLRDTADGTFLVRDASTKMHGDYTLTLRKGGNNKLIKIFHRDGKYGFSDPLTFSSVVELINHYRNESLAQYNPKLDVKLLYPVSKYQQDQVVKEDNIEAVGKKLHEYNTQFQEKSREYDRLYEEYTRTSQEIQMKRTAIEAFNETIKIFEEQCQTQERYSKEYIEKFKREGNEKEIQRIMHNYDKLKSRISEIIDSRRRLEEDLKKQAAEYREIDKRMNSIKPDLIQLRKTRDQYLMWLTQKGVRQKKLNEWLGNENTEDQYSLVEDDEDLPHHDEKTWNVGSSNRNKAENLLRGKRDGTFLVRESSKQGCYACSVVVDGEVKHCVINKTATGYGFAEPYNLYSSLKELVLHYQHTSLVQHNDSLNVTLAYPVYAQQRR

Sequence of MEK1 (Q02750 whole entry): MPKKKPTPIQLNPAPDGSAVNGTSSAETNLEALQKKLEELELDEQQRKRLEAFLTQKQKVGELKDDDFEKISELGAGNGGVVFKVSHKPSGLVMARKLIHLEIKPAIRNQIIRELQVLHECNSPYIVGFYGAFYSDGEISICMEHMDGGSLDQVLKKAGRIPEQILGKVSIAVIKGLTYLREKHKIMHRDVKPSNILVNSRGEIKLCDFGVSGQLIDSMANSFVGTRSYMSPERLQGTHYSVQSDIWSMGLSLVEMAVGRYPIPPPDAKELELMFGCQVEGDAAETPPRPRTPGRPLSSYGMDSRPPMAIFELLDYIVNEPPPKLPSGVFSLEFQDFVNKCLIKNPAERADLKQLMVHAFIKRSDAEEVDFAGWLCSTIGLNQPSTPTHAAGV

## O=C(NOCCOCCOCCOCCN1CCN(c2nc(N3CCOCC3)nc(-n3c(C(F)F)nc4ccccc43)n2)CC1)c1ccc(F)c(F)c1Nc1ccc(I)cc1F [ST-162]
[1]
  IC50: 398 nM
[2]
  IC50: 191 nM
